≈ marks a conversion by molar mass, not a printed value.
How the values were obtained:
Escherichia coli = assay: Antibacterial activity against Escherichia coli by agar well diffusion method; type: functional; settings: for MIC: Escherichia coli
[1] = Anti-inflammatory activity assessed as inhibition of albumin denaturation incubated for 15 min at 27 degC followed by incubation at 60 degC for 10 min by UV-Vis spectrophotometric analysis
[2] = test system: Staphylococcus epidermidis; assay: Antibacterial activity against Staphylococcus epidermidis by agar well diffusion method; type: functional; settings: for MIC: Staphylococcus epidermidis
Pseudomonas aeruginosa = assay: Antibacterial activity against Pseudomonas aeruginosa by agar well diffusion method; type: functional; settings: for MIC: Pseudomonas aeruginosa
Staphylococcus aureus = assay: Antibacterial activity against Staphylococcus aureus by agar well diffusion method; type: functional; settings: for MIC: Staphylococcus aureus
[3] = Antioxidant activity assessed as H2O2 scavenging activity after 10 min by UV-Vis spectrophotometric analysis; type: functional
Candida albicans = assay: Antifungal activity against Candida albicans by agar well diffusion method; type: functional; settings: for MIC: Candida albicans
[4] = Antioxidant activity assessed as Mo(6) reduction activity after 60 min by UV-Vis spectrophotometric analysis; type: functional
Aspergillus niger = assay: Antifungal activity against Aspergillus niger by agar well diffusion method; type: functional; settings: for MIC: Aspergillus niger

## O=C(N/N=C/c1ccccc1[N+](=O)[O-])c1ccccc1C(=O)c1ccccc1
Escherichia coli
  -logMIC: 1.301
  MIC: 20 mg/L (≈ 53.6 µM)
[1]
  IC50: 75 mg/L (≈ 201 µM)
[2]
  -logMIC: 1.47
  MIC: 30 mg/L (≈ 80.3 µM)
Pseudomonas aeruginosa
  -logMIC: 1.4
  MIC: 25 mg/L (≈ 67 µM)
Staphylococcus aureus
  -logMIC: 1.255
  MIC: 18 mg/L (≈ 48.2 µM)
[3]
  IC50: 101 mg/L (≈ 271 µM)
Candida albicans
  -logMIC: 1.397
  MIC: 25 mg/L (≈ 67 µM)
[4]
  IC50: 42 mg/L (≈ 112 µM)

## O=C(N/N=C/c1cccc([N+](=O)[O-])c1)c1ccc(Cl)cc1
Escherichia coli
  -logMIC: 1.301
  MIC: 20 mg/L (≈ 65.9 µM)
[1]
  IC50: 124 mg/L (≈ 408 µM)
[2]
  -logMIC: 1.69
  MIC: 50 mg/L (≈ 165 µM)
Aspergillus niger
  MIC: 10 mg/L (≈ 32.9 µM)
Pseudomonas aeruginosa
  -logMIC: 1.4
  MIC: 25 mg/L (≈ 82.3 µM)
Staphylococcus aureus
  -logMIC: 1.301
  MIC: 20 mg/L (≈ 65.9 µM)
[3]
  IC50: 22 mg/L (≈ 72.4 µM)
Candida albicans
  -logMIC: 1.531
  MIC: 34 mg/L (≈ 112 µM)
[4]
  IC50: 30 mg/L (≈ 98.8 µM)

## Cc1ccc(/C=N/NC(=O)c2ccc(Cl)cc2)cc1
Escherichia coli
  -logMIC: 2.264
  MIC: 184 mg/L (≈ 675 µM)
[1]
  IC50: 86 mg/L (≈ 315 µM)
[2]
  -logMIC: 2.3
  MIC: 200 mg/L (≈ 733 µM)
Aspergillus niger
  MIC: 10 mg/L (≈ 36.7 µM)
Pseudomonas aeruginosa
  -logMIC: 0.81
  MIC: 6.5 mg/L (≈ 23.8 µM)
Staphylococcus aureus
  -logMIC: 1.477
  MIC: 30 mg/L (≈ 110 µM)
[3]
  IC50: 4.3 mg/L (≈ 15.8 µM)
Candida albicans
  -logMIC: 1.301
  MIC: 20 mg/L (≈ 73.3 µM)
[4]
  IC50: 42 mg/L (≈ 154 µM)

## CC1(C)S[C@@H]2[C@H](NC(=O)[C@H](N)c3ccc(O)cc3)C(=O)N2[C@H]1C(=O)O [AMOXICILLIN]
Escherichia coli
  MIC: 12.5 mg/L (≈ 34.2 µM)
[2]
  MIC: 100 mg/L (≈ 274 µM)
Pseudomonas aeruginosa
  MIC: 200 mg/L (≈ 547 µM)
Staphylococcus aureus
  MIC: 12.5 mg/L (≈ 34.2 µM)

## COc1cc(/C=N/NC(=O)c2ccc(Cl)cc2)ccc1O
Escherichia coli
  -logMIC: 1.531
  MIC: 34 mg/L (≈ 112 µM)
[1]
  IC50: 160 mg/L (≈ 525 µM)
[2]
  -logMIC: 2
  MIC: 100 mg/L (≈ 328 µM)
Aspergillus niger
  -logMIC: 1.69
  MIC: 50 mg/L (≈ 164 µM)
Pseudomonas aeruginosa
  -logMIC: 1.4
  MIC: 25 mg/L (≈ 82 µM)
Staphylococcus aureus
  -logMIC: 1.255
  MIC: 18 mg/L (≈ 59.1 µM)
[3]
  IC50: 0.5 mg/L (≈ 1.64 µM)
Candida albicans
  -logMIC: 1.924
  MIC: 84 mg/L (≈ 276 µM)
[4]
  IC50: 32 mg/L (≈ 105 µM)

## Cc1ccc(/C=N/NC(=O)c2ccccc2C(=O)c2ccccc2)cc1
Escherichia coli
  -logMIC: 2.225
  MIC: 168 mg/L (≈ 491 µM)
[1]
  IC50: 12 mg/L (≈ 35 µM)
[2]
  -logMIC: 2.3
  MIC: 200 mg/L (≈ 584 µM)
Pseudomonas aeruginosa
  -logMIC: 1.4
  MIC: 25 mg/L (≈ 73 µM)
Staphylococcus aureus
  -logMIC: 1.531
  MIC: 34 mg/L (≈ 99.3 µM)
[3]
  IC50: 84 mg/L (≈ 245 µM)
Candida albicans
  -logMIC: 1.698
  MIC: 50 mg/L (≈ 146 µM)
[4]
  IC50: 5 mg/L (≈ 14.6 µM)

## O=C(N/N=C/c1ccccc1)c1ccccc1C(=O)c1ccccc1
Escherichia coli
  -logMIC: 1.924
  MIC: 84 mg/L (≈ 256 µM)
[1]
  IC50: 105 mg/L (≈ 320 µM)
[2]
  -logMIC: 1.69
  MIC: 50 mg/L (≈ 152 µM)
Pseudomonas aeruginosa
  -logMIC: 0.81
  MIC: 6.5 mg/L (≈ 19.8 µM)
Staphylococcus aureus
  -logMIC: 1.477
  MIC: 30 mg/L (≈ 91.4 µM)
[3]
  IC50: 152 mg/L (≈ 463 µM)
Candida albicans
  -logMIC: 2
  MIC: 100 mg/L (≈ 305 µM)
[4]
  IC50: 49 mg/L (≈ 149 µM)

## COc1cc(/C=N/NC(=O)c2ccccc2C(=O)c2ccccc2)ccc1O
Escherichia coli
  -logMIC: 1.698
  MIC: 50 mg/L (≈ 134 µM)
[1]
  IC50: 10 mg/L (≈ 26.7 µM)
[2]
  -logMIC: 2.3
  MIC: 200 mg/L (≈ 534 µM)
Aspergillus niger
  -logMIC: 1.4
  MIC: 25 mg/L (≈ 66.8 µM)
Pseudomonas aeruginosa
  -logMIC: 1.69
  MIC: 50 mg/L (≈ 134 µM)
Staphylococcus aureus
  -logMIC: 1.531
  MIC: 34 mg/L (≈ 90.8 µM)
[3]
  IC50: 79 mg/L (≈ 211 µM)
Candida albicans
  -logMIC: 1.301
  MIC: 20 mg/L (≈ 53.4 µM)
[4]
  IC50: 70 mg/L (≈ 187 µM)

## C=CC1=C(C(=O)O)N2C(=O)[C@@H](NC(=O)/C(=N\OCC(=O)O)c3csc(N)n3)[C@H]2SC1 [CEFIXIME]
Escherichia coli
  MIC: 50 mg/L (≈ 110 µM)
[2]
  MIC: 400 mg/L (≈ 882 µM)
Pseudomonas aeruginosa
  MIC: 400 mg/L (≈ 882 µM)
Staphylococcus aureus
  MIC: 50 mg/L (≈ 110 µM)

## O=C(N/N=C/c1ccccc1O)c1ccc(Cl)cc1
Escherichia coli
  -logMIC: 1.301
  MIC: 20 mg/L (≈ 72.8 µM)
[1]
  IC50: 95 mg/L (≈ 346 µM)
[2]
  -logMIC: 1.53
  MIC: 34 mg/L (≈ 124 µM)
Aspergillus niger
  -logMIC: 1
  MIC: 10 mg/L (≈ 36.4 µM)
Pseudomonas aeruginosa
  -logMIC: 1.09
  MIC: 12.5 mg/L (≈ 45.5 µM)
Staphylococcus aureus
  -logMIC: 1.255
  MIC: 18 mg/L (≈ 65.5 µM)
[3]
  IC50: 34 mg/L (≈ 124 µM)
Candida albicans
  -logMIC: 1.74
  MIC: 55 mg/L (≈ 200 µM)
[4]
  IC50: 50 mg/L (≈ 182 µM)

## O=C(N/N=C/c1ccc(Cl)cc1)c1ccccc1C(=O)c1ccccc1
Escherichia coli
  -logMIC: 1.924
  MIC: 84 mg/L (≈ 232 µM)
[1]
  IC50: 54 mg/L (≈ 149 µM)
[2]
  -logMIC: 1.69
  MIC: 50 mg/L (≈ 138 µM)
Aspergillus niger
  -logMIC: 1.3
  MIC: 20 mg/L (≈ 55.1 µM)
Pseudomonas aeruginosa
  -logMIC: 1.09
  MIC: 12.5 mg/L (≈ 34.5 µM)
Staphylococcus aureus
  -logMIC: 1.531
  MIC: 34 mg/L (≈ 93.7 µM)
[3]
  IC50: 109 mg/L (≈ 300 µM)
Candida albicans
  -logMIC: 2.301
  MIC: 200 mg/L (≈ 551 µM)
[4]
  IC50: 20 mg/L (≈ 55.1 µM)

## O=C(N/N=C/c1ccc([N+](=O)[O-])cc1)c1ccc(Cl)cc1
Escherichia coli
  -logMIC: 1.531
  MIC: 34 mg/L (≈ 112 µM)
[1]
  IC50: 85 mg/L (≈ 280 µM)
[2]
  MIC: 100 mg/L (≈ 329 µM)
Pseudomonas aeruginosa
  -logMIC: 1.3
  MIC: 20 mg/L (≈ 65.9 µM)
Staphylococcus aureus
  -logMIC: 1.301
  MIC: 20 mg/L (≈ 65.9 µM)
[3]
  IC50: 1.8 mg/L (≈ 5.93 µM)
Candida albicans
  -logMIC: 1.301
  MIC: 20 mg/L (≈ 65.9 µM)
[4]
  IC50: 45 mg/L (≈ 148 µM)

## O=C(N/N=C/c1ccccc1O)c1ccccc1C(=O)c1ccccc1
Escherichia coli
  -logMIC: 1.531
  MIC: 34 mg/L (≈ 98.7 µM)
[1]
  IC50: 35 mg/L (≈ 102 µM)
[2]
  -logMIC: 1.53
  MIC: 34 mg/L (≈ 98.7 µM)
Aspergillus niger
  -logMIC: 1.53
  MIC: 34 mg/L (≈ 98.7 µM)
Pseudomonas aeruginosa
  -logMIC: 1.09
  MIC: 12.5 mg/L (≈ 36.3 µM)
Staphylococcus aureus
  -logMIC: 1.301
  MIC: 20 mg/L (≈ 58.1 µM)
[3]
  IC50: 132 mg/L (≈ 383 µM)
Candida albicans
  -logMIC: 2
  MIC: 100 mg/L (≈ 290 µM)
[4]
  IC50: 15 mg/L (≈ 43.6 µM)

## O=C(N/N=C/c1ccc([N+](=O)[O-])cc1)c1ccccc1C(=O)c1ccccc1
Escherichia coli
  -logMIC: 1.397
  MIC: 25 mg/L (≈ 67 µM)
[1]
  IC50: 17 mg/L (≈ 45.5 µM)
[2]
  -logMIC: 1.47
  MIC: 30 mg/L (≈ 80.3 µM)
Aspergillus niger
  -logMIC: 1.4
  MIC: 25 mg/L (≈ 67 µM)
Pseudomonas aeruginosa
  -logMIC: 1.3
  MIC: 20 mg/L (≈ 53.6 µM)
Staphylococcus aureus
  -logMIC: 1.531
  MIC: 34 mg/L (≈ 91.1 µM)
[3]
  IC50: 125 mg/L (≈ 335 µM)
Candida albicans
  -logMIC: 1.924
  MIC: 84 mg/L (≈ 225 µM)
[4]
  IC50: 18 mg/L (≈ 48.2 µM)

## O=C(O)Cc1ccccc1Nc1c(Cl)cccc1Cl [DICLOFENAC]
[1]
  IC50: 71 mg/L (≈ 240 µM)

## O=C(N/N=C/c1ccc(O)cc1)c1ccccc1C(=O)c1ccccc1
Escherichia coli
  -logMIC: 1.903
  MIC: 80 mg/L (≈ 232 µM)
[1]
  IC50: 20 mg/L (≈ 58.1 µM)
[2]
  -logMIC: 1.92
  MIC: 84 mg/L (≈ 244 µM)
Aspergillus niger
  -logMIC: 1.92
  MIC: 84 mg/L (≈ 244 µM)
Pseudomonas aeruginosa
  -logMIC: 1.4
  MIC: 25 mg/L (≈ 72.6 µM)
Staphylococcus aureus
  -logMIC: 1.531
  MIC: 34 mg/L (≈ 98.7 µM)
[3]
  IC50: 91 mg/L (≈ 264 µM)
Candida albicans
  -logMIC: 2
  MIC: 100 mg/L (≈ 290 µM)
[4]
  IC50: 100 mg/L (≈ 290 µM)

## OC(Cn1cncn1)(Cn1cncn1)c1ccc(F)cc1F [FLUCONAZOLE]
Aspergillus niger
  MIC: 400 mg/L (≈ 1310 µM)
Candida albicans
  MIC: 12.5 mg/L (≈ 40.8 µM)
